Consider three compounds from ChEMBL document CHEMBL2150938, “Pyrrolo[2,3-b]quinoxalines as inhibitors of firefly luciferase: their Cu-mediated synthesis and evaluation as false positives in a reporter gene assay” (Bioorg Med Chem Lett, 2012).

One experiment deals with Lampyridae. The experiment in a line: inhibition of firefly luciferase at 30 uM after 15 mins by luminescence assay.
For experiment [1], the target named is 3',5'-cyclic-AMP phosphodiesterase 4B (Homo sapiens) (UniProt Q07343). The experiment in a line: Inhibition of PDE4B at 30 uM by luciferase reporter gene assay. On the technique in general: Reporter assays use an easily measured gene product as a stand-in for the process of interest.
3',5'-cyclic-AMP phosphodiesterase 4B (Homo sapiens), sequence (Q07343 whole entry): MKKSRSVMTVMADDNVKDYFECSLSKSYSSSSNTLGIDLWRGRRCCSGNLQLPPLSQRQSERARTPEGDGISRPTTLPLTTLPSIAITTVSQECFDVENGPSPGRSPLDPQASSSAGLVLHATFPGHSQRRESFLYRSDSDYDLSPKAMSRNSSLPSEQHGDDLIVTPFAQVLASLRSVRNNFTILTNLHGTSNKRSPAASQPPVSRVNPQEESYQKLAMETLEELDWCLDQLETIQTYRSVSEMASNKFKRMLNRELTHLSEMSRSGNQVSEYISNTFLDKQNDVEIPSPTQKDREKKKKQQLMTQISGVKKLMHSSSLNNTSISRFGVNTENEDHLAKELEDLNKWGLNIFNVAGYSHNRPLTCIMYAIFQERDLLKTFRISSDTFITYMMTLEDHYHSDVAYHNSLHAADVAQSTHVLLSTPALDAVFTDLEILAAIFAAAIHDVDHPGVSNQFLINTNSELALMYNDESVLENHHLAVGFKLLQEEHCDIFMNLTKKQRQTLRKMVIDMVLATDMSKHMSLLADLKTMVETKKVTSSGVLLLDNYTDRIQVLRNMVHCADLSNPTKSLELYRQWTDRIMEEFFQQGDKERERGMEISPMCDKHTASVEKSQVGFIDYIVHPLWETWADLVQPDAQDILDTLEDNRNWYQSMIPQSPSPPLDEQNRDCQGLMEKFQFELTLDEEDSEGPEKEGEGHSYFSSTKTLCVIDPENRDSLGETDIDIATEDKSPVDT

As for `CC(C)(C)c1cc2nc3ccccc3nc2[nH]1`, the results for the inhibition (with Lampyridae; in experiment [1]) were 99.2% and 100%, respectively.

For `c1ccc(-c2cc3[nH]c4ccccc4nc-3n2)cc1`, the inhibition in the experiment on Lampyridae is 98.4%; in experiment [1], 98.3%.

As to `CS(=O)(=O)n1c(-c2ccccc2)cc2nc3ccccc3nc21`, the inhibition came out at 92.4% with Lampyridae and 94.7% in experiment [1].

The term inhibition denotes the percentage by which the read-out fell short of the control. High values mean strong suppression, low ones little suppression.
